According to the CheMixHub viscosity set:
Where “and” joins values, the source holds several entries; their conditions need not be identical. Equal entries are not always repeated.

Experiment: xn = mol fraction of the nth substance listed

CCCOCC(C)O (configuration not stated) + CCCNCCC
viscosity [mPa·s], 100 kPa
Details	298.15 K	303.15 K	308.15 K
x1 = 0.0501	0.5507	0.5133	0.4872
x1 = 0.1003	0.6065	0.556	0.5257
x1 = 0.1502	0.6545	0.6056	0.571
x1 = 0.1999	0.7308	0.6597	0.6196
x1 = 0.3	0.8816	0.7957	0.7427
x1 = 0.4	1.089	0.969	0.894
x1 = 0.4999	1.294	1.144	1.052
x1 = 0.6	1.558	1.351	1.228
x1 = 0.6999	1.823	1.571	1.415
x1 = 0.7997	2.079	1.784	1.603
x1 = 0.8999	2.275	1.945	1.748
x1 = 0.9498	2.357	2.016	1.815

CN(C)P(=O)(N(C)C)N(C)C + CC(C)(C)O
303.15 K, 101.3 kPa
Details	viscosity [mPa·s]
x1 = 0.0784	3.704
x1 = 0.103	3.722
x1 = 0.1988	3.624
x1 = 0.2201	3.547
x1 = 0.3076	3.4
x1 = 0.4051	3.263
x1 = 0.4476	3.23
x1 = 0.5093	3.185
x1 = 0.6062	3.118
x1 = 0.7077	3.068
x1 = 0.8008	3.02
x1 = 0.9029	2.973

CC(=O)c1ccccc1 + CCOC(=O)OCC
viscosity [mPa·s], 101 kPa
Details	x2 = 0.0972	x2 = 0.1515	x2 = 0.2512	x2 = 0.3615	x2 = 0.4921	x2 = 0.5705	x2 = 0.6654	x2 = 0.7584	x2 = 0.8932	x2 = 0.9425
303.15 K	1.413	1.358	–	1.155	–	0.977	0.906	0.843	0.76	0.732
308.15 K	1.286	1.237	1.15	1.059	0.958	0.902	0.839	0.783	0.708	0.683
313.15 K	1.205	1.159	1.079	0.995	0.901	0.85	0.791	0.738	0.669	0.646

CCCCCCCCC + CCCCCCCCCCCCCCCC
298.15 K, 101.33 kPa
Details	viscosity [mPa·s]
x1 = 0.1105	2.698
x1 = 0.2002	2.416
x1 = 0.3173	2.072
x1 = 0.4054	1.832
x1 = 0.5056	1.571
x1 = 0.5795	1.404
x1 = 0.7077	1.152
x1 = 0.8024	0.9655
x1 = 0.8988	0.8177

COCOC + C1C[C@@H]2[C@H]3CC[C@H](C3)[C@@H]2C1
viscosity [mPa·s], 100 kPa
Details	x1 = 0.1048	x1 = 0.2024	x1 = 0.3042	x1 = 0.4061	x1 = 0.5027	x1 = 0.5936	x1 = 0.7008	x1 = 0.8058	x1 = 0.9096
293.15 K	2.257	1.767	1.398	1.122	0.901	0.749	0.616	–	0.428
298.15 K	2.053	1.606	1.295	1.043	0.845	0.704	0.586	0.45	0.408
303.15 K	1.903	1.483	1.202	0.964	0.797	0.664	0.558	0.433	0.393
308.15 K	1.746	1.408	1.12	0.908	0.737	0.628	0.531	0.421	0.38
313.15 K	1.615	1.3	1.047	0.846	0.716	0.594	0.507	0.402	0.368

CC(=O)c1ccccc1 + Cc1ccccc1
viscosity, 101 kPa
Details	x2 = 0.1093	x2 = 0.2145	x2 = 0.3206	x2 = 0.4281	x2 = 0.5229	x2 = 0.6213	x2 = 0.7157	x2 = 0.8392	x2 = 0.9074
298.15 K	1.561 mPa·s and 1.561 mPa·s	1.446 mPa·s and 1.446 mPa·s	1.329 mPa·s and 1.329 mPa·s	1.211 mPa·s and 1.211 mPa·s	1.105 mPa·s and 1.105 mPa·s	0.9949 mPa·s and 0.9949 mPa·s	0.8879 mPa·s and 0.8879 mPa·s	0.7472 mPa·s and 0.7472 mPa·s	0.6694 mPa·s and 0.6694 mPa·s
303.15 K	1.426 mPa·s and 1.426 mPa·s	1.323 mPa·s and 1.323 mPa·s	1.218 mPa·s and 1.218 mPa·s	1.112 mPa·s and 1.112 mPa·s	1.018 mPa·s and 1.018 mPa·s	0.9188 mPa·s and 0.9188 mPa·s	0.8233 mPa·s and 0.8233 mPa·s	0.6978 mPa·s and 0.6978 mPa·s	0.6286 mPa·s and 0.6286 mPa·s
308.15 K	1.31 mPa·s and 1.31 mPa·s	1.217 mPa·s and 1.217 mPa·s	1.123 mPa·s and 1.123 mPa·s	1.027 mPa·s and 1.027 mPa·s	0.9425 mPa·s and 0.9425 mPa·s	0.8535 mPa·s and 0.8535 mPa·s	0.7678 mPa·s and 0.7678 mPa·s	0.6554 mPa·s and 0.6554 mPa·s	0.5933 mPa·s and 0.5933 mPa·s

CC(=O)c1ccccc1 + ClC(Cl)Cl
298.15 K, 101 kPa
Details	viscosity [mPa·s]
x1 = 0.0992	0.655
x1 = 0.337	0.915
x1 = 0.501	1.107
x1 = 0.7125	1.352
x1 = 0.8875	1.53

Cc1cccc(C)n1 + CO
101 kPa
Details	viscosity [mPa·s]
298.01 K, x1 = 0.1115	0.705
298.12 K, x1 = 0.2763	0.857
298.18 K, x1 = 0.4001	0.912
298.18 K, x1 = 0.5482	0.909
298.19 K, x1 = 0.8449	0.846
298.24 K, x1 = 0.2399	0.823
298.29 K, x1 = 0.7013	0.891
303.08 K, x1 = 0.1115	0.655
303.15 K, x1 = 0.8449	0.789
303.17 K, x1 = 0.2763	0.793
303.21 K, x1 = 0.2399	0.763
303.21 K, x1 = 0.4001	0.85
303.24 K, x1 = 0.7013	0.828
303.25 K, x1 = 0.5482	0.84
308.08 K, x1 = 0.1115	0.613
308.18 K, x1 = 0.8449	0.737
308.19 K, x1 = 0.2763	0.739
308.24 K, x1 = 0.5482	0.782
308.25 K, x1 = 0.2399	0.71
308.26 K, x1 = 0.7013	0.774
312.95 K, x1 = 0.2399	0.662
313.15 K, x1 = 0.1115	0.572
313.22 K, x1 = 0.8449	0.691
313.25 K, x1 = 0.2763	0.688
313.27 K, x1 = 0.4001	0.729
313.33 K, x1 = 0.7013	0.725
318.22 K, x1 = 0.1115	0.535
318.28 K, x1 = 0.8449	0.65
318.32 K, x1 = 0.2399	0.617
318.33 K, x1 = 0.2763	0.643
318.33 K, x1 = 0.4001	0.682
318.35 K, x1 = 0.5482	0.688
318.38 K, x1 = 0.7013	0.68

ClC(Cl)C(Cl)(Cl)Cl + CC(C)=O
298.15 K, 101 kPa
Details	viscosity [mPa·s]
x2 = 0.1476	1.93
x2 = 0.3178	1.52
x2 = 0.5103	1.12
x2 = 0.7037	0.695
x2 = 0.9068	0.417

C1COCO1 + c1ccccc1
101.3 kPa
Details	viscosity [mPa·s]
298.15 K, x2 = 0.0968	0.5944
298.15 K, x2 = 0.199	0.597
298.15 K, x2 = 0.3032	0.5997
298.15 K, x2 = 0.4021	0.6022
298.15 K, x2 = 0.505	0.6045
298.15 K, x2 = 0.6016	0.6064
298.15 K, x2 = 0.704	0.6079
298.15 K, x2 = 0.7993	0.6089
298.15 K, x2 = 0.8946	0.6094
313.15 K, x2 = 0.1006	0.5001
313.15 K, x2 = 0.1994	0.5003
313.15 K, x2 = 0.299	0.5005
313.15 K, x2 = 0.3987	0.5005
313.15 K, x2 = 0.5003	0.5004
313.15 K, x2 = 0.5985	0.4998
313.15 K, x2 = 0.6993	0.4988
313.15 K, x2 = 0.7998	0.4976
313.15 K, x2 = 0.8987	0.4959

CCCCCCCCC + C1CCCCC1
viscosity [mPa·s], 101.33 kPa
Details	298.15 K	303.15 K	308.15 K
x2 = 0.106	0.658	0.617	0.576
x2 = 0.1286	0.6708	–	–
x2 = 0.1999	0.664	0.623	0.582
x2 = 0.2414	0.6821	–	–
x2 = 0.2987	0.672	0.632	0.589
x2 = 0.342	0.686	–	–
x2 = 0.3971	0.677	0.633	0.591
x2 = 0.4371	0.7041	–	–
x2 = 0.4952	0.696	0.648	0.602
x2 = 0.5293	0.7089	–	–
x2 = 0.5978	0.708	0.659	0.616
x2 = 0.6059	0.7214	–	–
x2 = 0.683	0.7381	–	–
x2 = 0.6994	0.73	0.679	0.631
x2 = 0.7423	0.7545	–	–
x2 = 0.7989	0.762	0.706	0.658
x2 = 0.8068	0.7761	–	–
x2 = 0.873	0.8053	–	–
x2 = 0.8991	0.805	0.743	0.687
x2 = 0.9395	0.8376	–	–
x2 = 0.9769	0.881	–	–

FCC(F)(F)F + OCCOCCOCCO
viscosity [mPa·s], 101.32 kPa
Details	x2 = 0.732	x2 = 0.733	x2 = 0.79	x2 = 0.791	x2 = 0.901	x2 = 0.903
293.15 K	11.3	–	15.8	–	28.9	–
313.15 K	–	5.52	–	7.14	–	11.2

[Al+3].[Cl-].[Cl-].[Cl-] + CC(N)=O
viscosity [mPa·s], 101 kPa
Details	x1 = 0.5	x1 = 0.52	x1 = 0.57	x1 = 0.6
313 K	59.32	47.47	44.48	40.23
323 K	41.01	32.24	30.87	28.7

CC(=O)c1ccccc1 + CC(C)(C)O
viscosity [mPa·s], 101 kPa
Details	x2 = 0.1188	x2 = 0.2314	x2 = 0.3395	x2 = 0.4286	x2 = 0.545	x2 = 0.6429	x2 = 0.7373	x2 = 0.8283	x2 = 0.9142
298.15 K	2.081	2.456	2.8	3.08	3.42	3.651	3.856	4.034	4.208
303.15 K	1.794	2.055	2.284	2.473	2.712	2.874	3.004	3.127	3.247
308.15 K	1.573	1.743	1.895	2.023	2.185	2.29	2.378	2.468	2.549
